The numbers were not newly measured in patent publication US20090062406A1, “Aqueous concentrates of isethionate, taurate and betaine” (Clariant International Ltd., priority 2007, published 2009), which cites them from elsewhere.

The conditions of this data set: 20° C.

Take sodium methyl cocoyl taurate: the Solubility in water is 10000 µg/mL.
